Columns and labels:
Set-up in all cases: key: “+” indicates that the compound exibits inhibitory activity; “−” indicates that low or no inhibitory activity was observed
[1] = molecular target: E3 (His-APC11/APC2-"APC") (Homo sapiens, UniProt Q9NYG5+Q9UJX6); test: Plate-based E3 ligase assay (APC FLAG), auto-ubiquitination; type: biochemical; details: 8 concentrations tested
Outline: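 His-APC11/APC2 auto-ubiquitination was run in casein-blocked nickel plates for 1 h at room temperature, with E1 at 5 ng/well, UbcH5c at 20 ng/well and APC at 100 ng/well. Buffer was 62.5 mM Tris pH 7.6, 3 mM MgCl2, 1 mM DTT, 2.5 mM ATP and Flag-ubiquitin at 100 ng/well. Detection used anti-Flag/HRP chemiluminescence, and IC50 was typically from 6 or 8 concentrations versus a DMSO control.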

[2] = tested on: A549 cells; test: Non-photographic proliferation analysis (Promega Cell titer Aqueous), A549; type: cell-based; details: 6 concentrations tested
Experimental: (§1) A549 (ATCC# CCL-185), HeLa (ATCC# CCL-2), HCT116 (ATCC# CCL-247), and H1299 (ATCC# CRL-5803) cells were maintained in T175 flasks following the ATCC recommended media and handling procedures. Flasks reaching approximately 70% confluency were trypsinized and resuspended in RPMI media (Cell-Gro catalog number 10-040-CM) modified to contain 5% FBS, 100 ug/mlPen/Strep (Cell-Gro catalog number 30-002-CL), and 0.3 mg/ml L-Glutamine (Cell-Gro catalog number 25-003-CL). A 20,000 cells/ml solution was made for plating. Cells were plated in black Packard 96 well plates by placing 100 μl per well (2,000 cells per well).
(§2) Compounds and additional media were added 24 hours after cell plating. A compound master plate was created with concentrations 500 times greater than the final concentration added to the cells. All compound testing was done in duplicate using 6.3 fold dilutions starting with 10 mM. All outside wells (and 4 internal wells) were DMSO controls. Taxol and at least one additional control were run on all plates. Three microliters of the compound master plate were added to deep well blocks containing 750 μl of RPMI media. One hundred microliters were transferred from the compound/media deep well blocks to the plated cells resulting in a 500 fold dilution of the compounds. Cells were grown at 37° C., 5% CO2 for 48 hours.
(§3) Some cell plates were treated with Promega Cell titer Aqueous 1 kit (promega—VWR catalog number G3580). In this case, 48 hours after the test compound were added, 100 μl of media were removed and 20 μl of cell titer reagent were added to all wells. Plates were incubated at 37° C. for 45 minutes prior to absorbance reads on the Wallac plate reader at 490 nm for 0.1 sec/well.

[3] = tested on: HeLa cells; test: Non-photographic proliferation analysis (Promega Cell titer Aqueous), HeLa; type: cell-based; details: 6 concentrations tested
Experimental: as §1, §2, §3

[4] = tested on: A549 cells; test: Cell proliferation assay, photographic image analysis of proliferation, apoptosis and death (PAD assay), A549; type: cell-based; details: 6 concentrations tested
Outline: (§4)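 Cells grown in RPMI with 5% FBS (2,000/well) and dosed 24 h after plating with 6.3-fold dilutions in duplicate (master plate 500× final, top 10 mM stock). After 48 h at 37 °C, cells formamide-fixed and DAPI-stained. Image analysis counted live, apoptotic and dead cells.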

[5] = tested on: HeLa cells; test: Cell proliferation assay, photographic image analysis of proliferation, apoptosis and death (PAD assay), HeLa; type: cell-based; details: 6 concentrations tested
Outline: as §4

Chain of E3 (His-APC11/APC2-"APC") (Q9NYG5 whole entry): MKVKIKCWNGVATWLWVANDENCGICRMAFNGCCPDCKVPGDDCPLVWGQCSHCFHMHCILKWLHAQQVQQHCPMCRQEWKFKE
Chain of E3 (His-APC11/APC2-"APC") (Q9UJX6 whole entry): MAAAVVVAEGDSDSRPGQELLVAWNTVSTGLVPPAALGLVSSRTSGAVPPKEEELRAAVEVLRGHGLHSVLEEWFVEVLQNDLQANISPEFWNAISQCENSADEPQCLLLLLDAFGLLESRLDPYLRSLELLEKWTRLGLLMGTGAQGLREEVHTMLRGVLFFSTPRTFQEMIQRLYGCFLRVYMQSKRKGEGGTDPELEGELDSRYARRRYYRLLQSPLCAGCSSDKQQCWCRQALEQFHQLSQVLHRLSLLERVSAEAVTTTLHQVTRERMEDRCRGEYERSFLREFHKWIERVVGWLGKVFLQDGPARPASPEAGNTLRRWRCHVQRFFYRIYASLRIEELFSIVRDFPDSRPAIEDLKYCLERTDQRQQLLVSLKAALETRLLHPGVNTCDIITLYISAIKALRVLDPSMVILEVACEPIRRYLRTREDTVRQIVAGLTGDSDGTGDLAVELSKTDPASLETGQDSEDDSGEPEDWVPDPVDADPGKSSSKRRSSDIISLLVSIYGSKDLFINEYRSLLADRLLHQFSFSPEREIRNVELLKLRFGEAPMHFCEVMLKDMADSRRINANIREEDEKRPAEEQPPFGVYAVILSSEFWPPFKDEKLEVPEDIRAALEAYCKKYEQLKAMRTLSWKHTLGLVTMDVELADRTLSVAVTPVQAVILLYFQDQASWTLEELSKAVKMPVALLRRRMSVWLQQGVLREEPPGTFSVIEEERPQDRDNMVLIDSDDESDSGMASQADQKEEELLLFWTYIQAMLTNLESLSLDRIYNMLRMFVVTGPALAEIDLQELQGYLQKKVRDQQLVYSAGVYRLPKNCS

Compound | APC Flag 8 pt [1] | Cell Titer-Aqueous, A549 6 pt [2] | Cell Titer-Aqueous, HELA 6 pt [3] | PAD Assay, A549 6 pt [4] | PAD Assay, HELA 6 pt [5]
O=[N+]([O-])c1ccc(Oc2c(Cl)cc(S(=O)(=O)NC(=S)Nc3ccc(Cl)c(Cl)c3)cc2Cl)c(Cl)c1 [Compound 148, 3,5-dichloro-4-(2-chloro-4-nitrophenoxy)-N-{[(3,4-dichlorophenyl)amino]carbothioyl}benzenesulfonamide] | + | − | − |  | 
COc1ccc(NS(=O)(=O)c2cc(Cl)c(Oc3ccc([N+](=O)[O-])cc3Cl)c(Cl)c2)cc1OC [Example 170, 3,5-dichloro-4-(2-chloro-4-nitrophenoxy)-N-(3,4-dimethoxyphenyl)benzenesulfonamide] | + | + | + |  | 
O=[N+]([O-])c1ccc(Oc2ccc(S(=O)(=O)Nc3c(F)cccc3F)cc2Cl)c(C(F)(F)F)c1 [Example 268, 3-chloro-N-(2,6-difluorophenyl)-4-[4-nitro-2-(trifluoromethyl)phenoxy]benzene-sulfonamide] | + |  |  | + | +
O=S(=O)(Nc1cc(F)ccc1F)c1ccc(Oc2ncc(C(F)(F)F)cc2Cl)cc1 [Example 269, 4-{[3-chloro-5-(trifluoromethyl)pyridin-2-yl]oxy}-N-(2,5-difluorophenyl)benzene-sulfonamide] | + |  |  | − | −
O=[N+]([O-])c1ccc(Oc2ccc(S(=O)(=O)Nc3cccc(Br)c3)cc2Cl)c(C(F)(F)F)c1 [Example 270, N-(3-bRomophenyl)-3-chloro-4-[4-nitro-2-(trifluoromethyl)phenoxy]benzenesulfonamide] | + |  |  | + | +
Cc1c(Cl)cccc1S(=O)(=O)Nc1ccc(Oc2ccc([N+](=O)[O-])cc2)cc1 [Example 274, 3-chloro-2-methyl-N-[4-(4-nitrophenoxy)phenyl]benzenesulfonamide] | + |  |  | + | −
O=[N+]([O-])c1ccc(Oc2ccc(NS(=O)(=O)c3cccc(Cl)c3)cc2)cc1 [Example 275, 3-chloro-N-[4-(4-nitrophenoxy)phenyl] benzenesulfonamide] | + |  |  | + | −
O=S(=O)(Nc1ccc(Oc2ccc(Cl)cc2)cc1)c1cc(Cl)ccc1Cl [Example 276, 2,5-dichloro-N-[4-(4-chlorophenoxy)phenyl]benzenesulfonamide] | + |  |  | + | −
O=S(=O)(Nc1ccc(Oc2ccc(F)cc2)c(Br)c1)c1cc(Cl)ccc1Cl [Example 278, N-[3-bRomo-4-(4-fluorophenoxy)phenyl]-2,5-dichlorobenzenesulfonamide] | + |  |  | + | +
O=S(=O)(Nc1ccc(Oc2c(Cl)cc(Cl)cc2Cl)cc1)c1cc(Cl)ccc1Cl [Example 279, 2,5-dichloro-N-[4-(2,4,6-trichlorophenoxy)phenyl]benzenesulfonamide] | + |  |  | + | +
Cc1c(Cl)cccc1S(=O)(=O)Nc1ccc(Oc2ccc(F)cc2)c(Br)c1 [Example 281, N-[3-bRomo-4-(4-fluorophenoxy)phenyl]-3-chloro-2-methylbenzenesulfonamide] | + |  |  | + | +
O=S(=O)(Nc1ccc(Oc2ccc(F)cc2)c(Br)c1)c1ccc(F)cc1 [Example 283, N-[3-bRomo-4-(4-fluorophenoxy)phenyl]-4-fluorobenzenesulfonamide] | + |  |  | + | −
O=S(=O)(Nc1ccc(Oc2ccc(F)cc2)c(Br)c1)c1ccc(OC(F)(F)F)cc1 [Example 284, N-[3-bRomo-4-(4-fluorophenoxy)phenyl]-4-(trifluoromethoxy)benzenesulfonamide] | + |  |  | + | +
O=S(=O)(Nc1ccc(Oc2ncc(C(F)(F)F)cc2Cl)cc1)c1ccccc1C(F)(F)F [Example 296, N-(4-(3-chloro-5-(trifluoromethyl)pyridin-2-yloxy)phenyl)-2-(trifluoromethyl)benzenesulfonamide] | − |  |  | + | −

The next lines start with results.

APC Flag 8 pt [1] | Compound | Cell Titer-Aqueous, A549 6 pt [2] | Cell Titer-Aqueous, HELA 6 pt [3] | PAD Assay, A549 6 pt [4] | PAD Assay, HELA 6 pt [5]
+ | COc1cccc(NS(=O)(=O)c2cc(Cl)c(Oc3ccc([N+](=O)[O-])cc3Cl)c(Cl)c2)c1F [Example 166, 3,5-dichloro-4-(2-chloro-4-nitrophenoxy)-N-(2-fluoro-3-methoxyphenyl)benzene-sulfonamide] | + | + |  | 
+ | O=[N+]([O-])c1ccc(Oc2c(Cl)cc(S(=O)(=O)Nc3cccc4c3oc3ccccc34)cc2Cl)c(Cl)c1 [Example 175, 3,5-dichloro-4-(2-chloro-4-nitrophenoxy)-N-dibenzo[b,d]furan-4-ylbenzenesulfonamide] | − | − |  | 
+ | O=[N+]([O-])c1ccc(Oc2c(Cl)cc(S(=O)(=O)Nc3cccc(-c4ccccc4)c3)cc2Cl)c(Cl)c1 [Example 179, N-biphenyl-3-yl-3,5-dichloro-4-(2-chloro-4-nitrophenoxy)benzenesulfonamide] | − | + |  | 
+ | O=S(=O)(Nc1ccc(Oc2cc(C(F)(F)F)ccc2Cl)cc1F)c1cc(Cl)ccc1Cl [Example 277, 2,5-dichloro-N-{4-[2-chloro-5-(trifluoro-methyl)phenoxy]-2-fluorophenyl}benzene-sulfonamide] |  |  | + | +
+ | O=S(=O)(Nc1ccc(Oc2cc(C(F)(F)F)ccc2Cl)cc1F)c1ccc(F)cc1 [Example 286, N-{4-[2-chloro-5-(trifluoromethyl)phenoxy]-2-fluorophenyl)-4-fluorobenzenesulfonamide] |  |  | + | +
+ | O=[N+]([O-])c1ccc(Oc2c(Cl)cc(S(=O)(=O)Nc3ccc(Oc4cc(C(F)(F)F)ccc4Cl)cc3F)cc2Cl)c(Cl)c1 [Example 290, 3,5-dichloro-4-(2-chloro-4-nitrophenoxy)-N-{4-[2-chloro-5-(trifluoromethyl)phenoxy]-2-fluorophenyl}benzenesulfonamide] |  |  | + | +
+ | O=[N+]([O-])c1ccc(Oc2c(Cl)cc(S(=O)(=O)Nc3ccc(Oc4ccc(F)cc4)c(Br)c3)cc2Cl)c(Cl)c1 [Example 291, N-[3-bRomo-4-(4-fluorophenoxy)phenyl]-3,5-dichloro-4-(2-chloro-4-nitrophenoxy) benzenesulfonamide] |  |  | + | +

Reference: patent US7915293B2, “Ubiquitin ligase inhibitors” (Rigel Pharmaceuticals, Inc., priority 2003, dated 2011)
